{"source": "patent US8680153B2", "about": "“Method for correcting a lipid imbalance in a subject” (The Royal Institution for the Advancement of …, priority 2005, dated 2014)", "key": {"[1]": {"system": "phospholipid-bound AA and DHA", "test": "Essential fatty acid profile in plasma, biweekly treatment for 4 weeks (8 treatments)", "format": "in vivo, mice", "method": "Fenretinide Diet Supplementation. Examples 2 to 6: fenretinide (Sigma-Aldrich, Oakville, ON) powder was resuspended in 95% ethanol and subsequently incorporated in the Peptamen liquid diet. It was protected from light and kept at 4° C. before being given to the mice (5 mg/kg per day per mouse). Mock-treated diets were prepared similarly by adding ethanol to the Peptamen diet but omitting the fenretinide supplementation. The diet was given every morning for 28 consecutive days with specific monitoring of the quantity consumed by the mice in each cage. Examples 7 to 12: fenretinide powder was kindly provided by Dr. Robert Smith (NIH; Bethesda, Md., USA). Fenretinide was resuspended in 95% ethanol to make a 2 μg/μL concentration. Approximately 40 μL of this preparation was incorporated into the Peptamen liquid diet (5 mg/kg per day per mouse). The prepared food containing fenretinide was then stored in the dark at 4° C. for no more than 3 hours prior to being administered to the mice. To ensure that the entire drug dose was consumed, the mice were given 10 mL of fenretinide-treated Peptamen, which represents ⅔ of the daily mouse food consumption, in the late afternoon. The remaining 5 mL of Peptamen (without fenretinide) was given the following morning. Mice were treated twice a week for 4 weeks. During the treatment period each mouse was kept in a separate cage (including WT mice) and was monitored to ensure that the entire amount of Peptamen containing the fenretinide or with out was consumed. The diet for the mock-treated control group was prepared and administered similarly to that described above, by adding the same volume of ethanol to the Peptamen diet but omitting the fenretinide supplementation.\nFatty Acid Analysis. Minced tissues isolated from mice were immersed in 1 mM BHA in chloroform and methanol (2:1 vol). For plasma samples (mouse and human), 100 μL of plasma was added to 1 mL of BHA. Lipids were then extracted from all samples according to standard methods (Folch, et al. (1957) J. Biol. Chem. 226:497-509). Identification of phospholipids was carried out by thin-layer chromatography extraction (Van Handel & Zilversmit (1957) J. Lab. Clin. Med. 50:152-157). Also, fractionated lipids were dried and resuspended in heptane:methanol:sulfuric acid (5:1:1) for free fatty acid extraction. Diazomethane was used to esterify the fatty acids released and the esters were identified by GC/MS (Hewlett Packard 5880A, WCOT capillary column (Supelco-10, 35 m×0.5 mm, 1 μm thick)) using commercial standards (Sigma-Aldrich)."}, "ceramide levels": {"system": "ceramide levels", "test": "Plasma ceramide levels, biweekly treatment for 4 weeks", "format": "in vivo", "details": "Cftr-KO mice, 4 weeks of biweekly treatment, p<0.05", "method": "Fenretinide Diet Supplementation. Examples 2 to 6: fenretinide (Sigma-Aldrich, Oakville, ON) powder was resuspended in 95% ethanol and subsequently incorporated in the Peptamen liquid diet. It was protected from light and kept at 4° C. before being given to the mice (5 mg/kg per day per mouse). Mock-treated diets were prepared similarly by adding ethanol to the Peptamen diet but omitting the fenretinide supplementation. The diet was given every morning for 28 consecutive days with specific monitoring of the quantity consumed by the mice in each cage. Examples 7 to 12: fenretinide powder was kindly provided by Dr. Robert Smith (NIH; Bethesda, Md., USA). Fenretinide was resuspended in 95% ethanol to make a 2 μg/μL concentration. Approximately 40 μL of this preparation was incorporated into the Peptamen liquid diet (5 mg/kg per day per mouse). […] During the treatment period each mouse was kept in a separate cage (including WT mice) and was monitored to ensure that the entire amount of Peptamen containing the fenretinide or with out was consumed. […]\nCeramide/Sphingolipids analysis. The concentration of ceramide in the (lung, liver, ileum, pancreas homogenates) and plasma from mice and humans were determined by ELISA^39;40 on separated lipids samples by thin layer chromatography, as described above. […]"}}, "note": "Entries after “also recorded” stand apart in the source; their conditions may differ."}
{"smiles": "CC1=C(/C=C/C(C)=C/C=C/C(C)=C/C(=O)Nc2ccc(O)cc2)C(C)(C)CCC1", "note": "[fenretinide, all-trans-N-(4-hydroxyphenyl) retinamide]", "values": [{"measurement": "Concentration of phospholipid-bound AA in plasma", "setting": "[1]; Cftr-KO mice, 8 treatments, p<0.05", "result": "brought down significantly; also recorded: decreased significantly"}, {"measurement": "Phospholipid-bound DHA, increase vs control Cftr-KO", "setting": "[1]; Cftr-KO mice, plasma, 8 treatments", "result": 2, "unit": "fold"}, {"measurement": "DHA:AA ratio, increase vs untreated Cftr-KO", "setting": "[1]; Cftr-KO mice, plasma, 8 treatments, p<0.05", "result": 2, "unit": "fold"}, {"measurement": "DHA bound in phospholipids, increase", "setting": "[1]; WT and Cftr-KO mice, after 4 weeks of biweekly treatments (FIG. 14B legend)", "result": 2, "unit": "fold"}, {"measurement": "Ceramide levels, increase vs untreated Cftr-KO", "setting": "ceramide levels", "result": 5.9, "unit": "fold"}]}
